This note sets out measurements from patent publication US20260232827A1, “ANTIBODY-DRUG CONJUGATES TARGETING NAPI2B AND METHODS OF USE” (Zymeworks BC Inc., priority 2023, published 2026).

The subject of assay [1] is human erythroid progenitors. The assay is described as follows: Colony-forming unit (CFU) assay, target-independent cytotoxicity. Format: cell-based. The settings on record: 336 h. An excerpt: (§1) The non-specific (target-independent) cytotoxicity of ADCs in human erythroid and myeloid progenitors is of interest as, in the context of off-target toxicities, uptake and trafficking of intact ADCs into normal cells can occur by different mechanisms following administration of ADC in vivo, including target-dependent, for example, NaPi2b-dependent internalization, or target-independent mechanisms, for example, FcγR-dependent internalization or non-specific endocytosis (Mahalingaiah et al., Pharmacol Ther. 2019 August; 200:110-125). Profiling the in vitro target-independent cytotoxicity of ADCs to erythroid and myeloid progenitors may further understanding of their interactions in vivo.
(§2) Briefly, 20,000 human bone marrow-isolated HSC CD34+ were seeded in a semi-solid methylcellulose-based media formulation containing recombinant human interleukin-3 (rhIL-3, 10 ng/mL), rh granulocyte-macrophage-colony-stimulating factor (rhGM-CSF, 10 ng/mL), rh stem cell factor (rhSCF, 50 ng/mL) and Erythropoietin (Epo, 3 U/mL), to induce differentiation into clonogenic progenitors of human erythroid (CFU-erythroid CFU-E, burst-forming unit-erythroid BFU-E), granulocyte-monocyte (CFU-granulocyte-macrophage CFU-GM) and multipotential (CFU-granulocyte-erythroid-monocyte-megakaryocyte CFU-GEMM). […] After treatment, erythroid and myeloid colonies were assessed microscopically and scored. The colonies were divided into the following categories based on size and morphology: CFU-E, BFU-E, CFU-GM and CFU-GEMM. Percent survivability values were calculated based on the number of colonies after treatment over the number of colonies after solvent controls treatment and plotted against test article concentration using GraphPad Prism 9 software (GraphPad Software, La Jolla, CA). IC50 values were calculated based on a non-linear regression log(inhibitor) versus response, variable slope (four parameters) by GraphPad Prism 9.

Assay [2] deals with human myeloid progenitors. Described as above. Format: cell-based. The settings on record: 336 h.
Description: as §1, §2

In assay [3] the test system is Construct 1 (chimeric human NaPi2b, region 239-259). As to the kind of experiment: Binding region mapping, flow cytometry on transfected HEK293-6e cells. The settings on record: 24 hours at 4° C. An excerpt: (§3) NaPi2b constructs containing deletions in the main extracellular loop of human NaPi2b, as well as chimeric NaPi2b/NaPi2c constructs concerning this main loop, were generated.
(§4) As a complementary strategy, two additional constructs were designed in which the relevant region of the main loop was deleted such as to mimic NaPi2c/NaPi2a main extracellular loop (Constructs 6-7 in Table 52.1). Clones were generated at GenScript Biotech (Piscataway, NJ).
(§5) Constructs were expressed in HEK293-6e cells as follows. Cells were maintained under standard culture conditions (37° C./5% CO2) with shaking at 110 rpm for suspension and cultured in FreeStyle™ 293 Expression Medium (Thermo Fisher Scientific, Waltham, MA) supplemented with 1% fetal bovine serum (Thermo Fisher Scientific, Waltham, MA) and 1× Penicillin-Streptomycin (Thermo Fisher Scientific, Waltham, MA). Cells were transfected with clones expressing the constructs listed in Table 52.1, at 1 μg of DNA per 1 million cells, using 293Fectin™ Transfection Reagent (Thermo Fisher Scientific, Waltham, MA) and Opti-MEM™ I Reduced Serum Medium (Thermo Fisher Scientific, Waltham, MA), and incubated for 24 hours under standard culture conditions (37° C./5% CO2/110 rpm). Following transfection, cells were seeded at 50,000 cells/well in conical-bottom 96-well plates and treated with a serial dilution of test antibody for 24 hours at 4° C. to prevent internalization. Cells were treated with final concentrations of all humanized antibodies of 200, 20, or 2 nM. Cells were treated with final concentrations of the reference anti-NaPi2a rabbit antibody of 50, 5, or 0.5 nM. […] Following incubation and washing, fluorescence was detected by flow cytometry on a BD LSRFortessa™ Cell Analyzer (BD Biosciences, Franklin Lake, NJ) with 1,000 minimum events collected per well. […] Background-subtracted AF647 Mean Fluorescence Intensity (MFI) values were calculated by subtracting the average MFI of three technical replicates of unstained (no primary antibody) cells.

The test system of assay [4] is Construct 2 (chimeric human NaPi2b, region 280-301). Described as above. The settings on record: 24 hours at 4° C.
Description: as §3, §4, §5

In the next assay the target is T1, human NaPi2b (Homo sapiens, UniProt O95436).
T1 construct: Full length human NaPi2b; host or cells: HEK293-6e
T1 sequence (O95436 1-690): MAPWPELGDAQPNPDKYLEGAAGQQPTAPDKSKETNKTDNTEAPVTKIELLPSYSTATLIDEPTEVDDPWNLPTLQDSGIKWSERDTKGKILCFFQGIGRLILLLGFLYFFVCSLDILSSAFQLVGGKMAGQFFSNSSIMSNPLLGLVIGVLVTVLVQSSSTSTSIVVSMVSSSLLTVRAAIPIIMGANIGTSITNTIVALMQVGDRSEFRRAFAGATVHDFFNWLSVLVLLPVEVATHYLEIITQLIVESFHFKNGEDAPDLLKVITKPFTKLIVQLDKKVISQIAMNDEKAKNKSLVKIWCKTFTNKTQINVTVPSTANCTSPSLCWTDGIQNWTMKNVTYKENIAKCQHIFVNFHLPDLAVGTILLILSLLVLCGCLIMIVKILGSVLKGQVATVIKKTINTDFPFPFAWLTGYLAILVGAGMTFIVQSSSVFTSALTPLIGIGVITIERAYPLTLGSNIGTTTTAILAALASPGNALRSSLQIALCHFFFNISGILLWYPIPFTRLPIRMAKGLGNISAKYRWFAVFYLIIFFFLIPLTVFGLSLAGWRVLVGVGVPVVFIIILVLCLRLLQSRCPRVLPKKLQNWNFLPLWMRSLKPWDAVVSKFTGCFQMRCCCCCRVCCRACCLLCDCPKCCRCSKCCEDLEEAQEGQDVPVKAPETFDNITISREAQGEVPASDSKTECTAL
As to the kind of experiment: Competition binding (epitope binning) by flow cytometry, transfected HEK293-6e cells. The settings on record: unlabeled competitor 100 μg/mL, detection antibody 1 μg/mL. As for the experimental part: Binding was assessed by flow cytometry using HEK293-6e cells as described below.
HEK293-6e cells were transfected for ~24 hours to transiently express human NaPi2b (1 μg of pTT5-NaPi2b per 1 million cells) or transfected with GFP (ATUM, Menlo Park, CA; pD2610-v23, also 1 μg of DNA per 1 million cells). Following transfection, human NaPi2b-expressing HEK296-6e cells and transfected GFP-expressing HEK296-6e cells were mixed at 4:1 ratio. Each well of a V-bottom 96-well plate was seeded with 100,000 cells of the mixture and incubated with 100 μg/mL of unlabeled competitor anti-NaPi2b antibody for an hour on ice. Post incubation, cells were washed and stained with 1 μg/mL of AF647-conjugated anti-NaPi2b detection antibodies for an hour on ice. Following staining and washing, fluorescence was detected by flow cytometry on a BD LSRFortessa™ Cell Analyzer (BD Biosciences, Franklin Lake, NJ) with 10,000 minimum events collected per well. […] Percentage inhibition was calculated using the following formula: […]

The test system of assay [5] is Construct 4 (chimeric human NaPi2b, region 341-358). As to the kind of experiment: Binding region mapping, flow cytometry on transfected HEK293-6e cells. The settings on record: antibody 20.0 nM, 24 hours at 4° C.
Description: as §3, §4, §5

pIC50: −log10 of the molar value. Like-named read-outs stand apart in the source and are kept apart here.

In the case of `CC[C@@]1(O)C(=O)OCc2c1cc1n(c2=O)Cc2c-1nc1cc(F)c(C)cc1c2CNC(=O)OCCO` [Compound 139, 2-hydroxyethyl (S)-((4-ethyl-8-fluoro-4-hydroxy-9-methyl-3,14-dioxo-3,4,12,14-tetrahydro-1H-pyrano[3′,4′:6,7]indolizino[1,2-b]quinolin-11-yl)methyl)carbamate], the pIC50 in assay [1] (14 days incubation, read-out: Human IC50, Erythroid progenitors) is 8.88; in assay [1] (14 days, read-out: IC50, erythroid progenitors), 8.88; in assay [2] (14 days incubation, read-out: Human IC50, Myeloid progenitors) it was 8.76; in assay [2] (14 days, read-out: IC50, myeloid progenitors), 8.76.

Consider MX35 [MX35 (v18992)], for which the “Background-Subtracted AF647 Mean Fluorescence Intensity” value is recorded as 1,893 in assay [3] (antibody 2.0 nM); 1,816 in assay [3] (antibody 20.0 nM); 1,718 in assay [3] (antibody 200.0 nM); 1,246 in assay [4] (antibody 20.0 nM); 1,356 in assay [4] (antibody 200.0 nM).

Turning to Palivizumab [v16955 (negative control)], in the assay with human NaPi2b, the “% Inhibition vs. irrelevant mAb, labeled detection antibody v16955 (negative control)” value turned out to be 0%; the “% Inhibition vs. irrelevant mAb, labeled detection antibody v18992 (MX35)” value amounted to 0%; the “% Inhibition vs. irrelevant mAb, labeled detection antibody v18993 (lifastuzumab)” value was determined as 0%; the “% Inhibition vs. irrelevant mAb, labeled detection antibody v23855” value is listed as 0%.

In the case of lifastuzumab [lifastuzumab (v18993)], the “Background-Subtracted AF647 Mean Fluorescence Intensity” value in assay [5] is recorded as 1,049; in assay [3] (antibody 2.0 nM), 1,232; in assay [3] (antibody 20.0 nM) it was 1,697; in assay [3] (antibody 200.0 nM), 1,508; in assay [4] (antibody 20.0 nM) it was 1,198; in assay [4] (antibody 200.0 nM) it was 1,232.
